{
  "source": "paper PMC5598241",
  "about": "(Toxicology Reports, 2015)",
  "key": {"Sprague Dawley (SD) rats [1]": {"tested_on": "Sprague Dawley (SD) rats", "test": "Liver function tests after single oral PAR overdose with or without GFJ or BGT", "type": "in vivo, rat", "conditions": "for Liver function tests ALP / Liver function tests ALT / Liver function tests AST: PAR 1725 mg/kg oral alone, mean ± SD, n = 5"}, "Sprague Dawley (SD) rats [2]": {"tested_on": "Sprague Dawley (SD) rats", "test": "Full blood count after drug administration", "type": "in vivo, rat", "conditions": "for thrombocytopenia (low platelet count): all test animals given PAR, GFJ and BGT = groups co-treated with PAR; for Full blood count Hb / Full blood count Hct / Full blood count MCH / Full blood count MCHC / Full blood count MCV / Full blood count Plt / Full blood count RCC / Full blood count WCC: PAR 1725 mg/kg oral alone, mean ± SD, n = 3"}, "[3]": {"test": "PAR plasma concentration by HPLC", "type": "in vivo", "conditions": "Sprague Dawley, rat, oral, 1725 mg/kg"}, "humans": {"tested_on": "humans", "conditions": "stated without reference; cited from earlier work"}, "SD rats": {"tested_on": "SD rats", "test": "Preliminary determination of the toxic dose of PAR", "type": "in vivo, rat", "conditions": "preliminary experiment"}, "[4]": {"tested_on": "P450 enzymes CYP1A2, CYP2C9, CYP2C19, CYP2D6 and CYP3A4", "conditions": "furanocoumarin dimers versus monomer; cited from earlier work"}, "[5]": {"conditions": "48 h after dosing, listed as PAR only"}, "[6]": {"conditions": "48 h after dosing, listed as PAR-only"}, "[7]": {"conditions": "PAR 1725 mg/kg single dose, 72 h, 3 rats"}, "[8]": {"conditions": "PAR 1822 mg/kg single dose, 72 h, 3 rats"}},
  "data": [
    {"molecule": "CC(C)=CCC/C(C)=C/COc1c2ccoc2cc2oc(=O)ccc12", "note": "[BGT, bergamottin]", "values": [
      {"measurement": "PAR-induced hepatotoxicity after PAR overdose", "setting": "Sprague Dawley (SD) rats [1]; co-administered orally with PAR 1725 mg/kg in rats", "value": "prevented"},
      {"measurement": "thrombocytopenia (low platelet count)", "setting": "Sprague Dawley (SD) rats [2]", "value": "moderate"}
    ]},
    {"molecule": "CC(=O)Nc1ccc(O)cc1", "note": "[PAR, paracetamol]", "values": [
      {"measurement": "concentration at 24 h", "setting": "[3]", "value": 5720, "unit": "ng/mL"},
      {"measurement": "concentration at 48 h", "setting": "[3]", "value": 4450, "unit": "ng/mL"},
      {"measurement": "concentration at 72 h", "setting": "[3]", "value": 2020, "unit": "ng/mL"},
      {"measurement": "hepatotoxic dose of PAR in humans", "setting": "humans", "value": 100, "unit": "mg/kg"},
      {"measurement": "Liver function tests ALP", "setting": "Sprague Dawley (SD) rats [1]; 24 h after dosing", "value": "319 ± 2.1", "unit": "units/l"},
      {"measurement": "Liver function tests ALT", "setting": "Sprague Dawley (SD) rats [1]; 24 h after dosing", "value": "63 ± 41.3", "unit": "units/l"},
      {"measurement": "Liver function tests AST", "setting": "Sprague Dawley (SD) rats [1]; 24 h after dosing", "value": "156 ± 76.2", "unit": "units/l"},
      {"measurement": "Liver function tests ALP", "setting": "Sprague Dawley (SD) rats [1]; 48 h after dosing", "value": "296 ± 148.5", "unit": "units/l"},
      {"measurement": "Liver function tests ALT", "setting": "Sprague Dawley (SD) rats [1]; [5]", "value": "837 ± 268", "unit": "units/l"},
      {"measurement": "Liver function tests AST", "setting": "Sprague Dawley (SD) rats [1]; [5]", "value": "1359 ± 405", "unit": "units/l"},
      {"measurement": "Liver function tests ALT", "setting": "Sprague Dawley (SD) rats [1]; [6]", "value": "837 ± 268.0", "unit": "units/l"},
      {"measurement": "Liver function tests AST", "setting": "Sprague Dawley (SD) rats [1]; [6]", "value": "1359 ± 404.5", "unit": "units/l"},
      {"measurement": "Liver function tests ALP", "setting": "Sprague Dawley (SD) rats [1]; 72 h after dosing", "value": "267 ± 38.9", "unit": "units/l"},
      {"measurement": "Liver function tests ALT", "setting": "Sprague Dawley (SD) rats [1]; 72 h after dosing", "value": "419 ± 690.1", "unit": "units/l"},
      {"measurement": "Liver function tests AST", "setting": "Sprague Dawley (SD) rats [1]; 72 h after dosing", "value": "512 ± 657.9", "unit": "units/l"},
      {"measurement": "change in liver enzymes", "setting": "SD rats; PAR 1000 mg dose, 24, 48 and 72 h", "value": "no change"},
      {"measurement": "ALP", "setting": "SD rats; [7]", "value": "260.0 ± 36"},
      {"measurement": "AST", "setting": "SD rats; [7]", "value": "512.0 ± 593"},
      {"measurement": "ALP", "setting": "SD rats; [8]", "value": "223.7 ± 82"},
      {"measurement": "ALT", "setting": "SD rats; [8]", "value": "44.3 ± 3"},
      {"measurement": "AST", "setting": "SD rats; [8]", "value": "104.0 ± 14"},
      {"measurement": "Full blood count Hb", "setting": "Sprague Dawley (SD) rats [2]; 24 h", "value": "15.2 ± 0"},
      {"measurement": "Full blood count Hct", "setting": "Sprague Dawley (SD) rats [2]; 24 h", "value": "0.439 ± 0"},
      {"measurement": "Full blood count MCH", "setting": "Sprague Dawley (SD) rats [2]; 24 h", "value": "19.9 ± 0"},
      {"measurement": "Full blood count MCHC", "setting": "Sprague Dawley (SD) rats [2]; 24 h", "value": "34.5 ± 0"},
      {"measurement": "Full blood count MCV", "setting": "Sprague Dawley (SD) rats [2]; 24 h", "value": "57.6 ± 1"},
      {"measurement": "Full blood count Plt", "setting": "Sprague Dawley (SD) rats [2]; 24 h", "value": "1159 ± 81"},
      {"measurement": "Full blood count RCC", "setting": "Sprague Dawley (SD) rats [2]; 24 h", "value": "7.6 ± 0"},
      {"measurement": "Full blood count WCC", "setting": "Sprague Dawley (SD) rats [2]; 24 h", "value": "4.1 ± 1"},
      {"measurement": "Full blood count Hb", "setting": "Sprague Dawley (SD) rats [2]; 48 h", "value": "15.3 ± 1"},
      {"measurement": "Full blood count Hct", "setting": "Sprague Dawley (SD) rats [2]; 48 h", "value": "0.464 ± 0"},
      {"measurement": "Full blood count MCH", "setting": "Sprague Dawley (SD) rats [2]; 48 h", "value": "20.4 ± 0"},
      {"measurement": "Full blood count MCHC", "setting": "Sprague Dawley (SD) rats [2]; 48 h", "value": "33.1 ± 0"},
      {"measurement": "Full blood count MCV", "setting": "Sprague Dawley (SD) rats [2]; 48 h", "value": "61.1 ± 1"},
      {"measurement": "Full blood count Plt", "setting": "Sprague Dawley (SD) rats [2]; 48 h", "value": "310 ± 305"},
      {"measurement": "Full blood count RCC", "setting": "Sprague Dawley (SD) rats [2]; 48 h", "value": "7.5 ± 0"},
      {"measurement": "Full blood count WCC", "setting": "Sprague Dawley (SD) rats [2]; 48 h", "value": "5.9 ± 0"},
      {"measurement": "Full blood count Hb", "setting": "Sprague Dawley (SD) rats [2]; 72 h", "value": "13.6 ± 2"},
      {"measurement": "Full blood count Hct", "setting": "Sprague Dawley (SD) rats [2]; 72 h", "value": "0.406 ± 0"},
      {"measurement": "Full blood count MCH", "setting": "Sprague Dawley (SD) rats [2]; 72 h", "value": "19.8 ± 1"},
      {"measurement": "Full blood count MCHC", "setting": "Sprague Dawley (SD) rats [2]; 72 h", "value": "33.7 ± 1"},
      {"measurement": "Full blood count MCV", "setting": "Sprague Dawley (SD) rats [2]; 72 h", "value": "58.9 ± 4"},
      {"measurement": "Full blood count Plt", "setting": "Sprague Dawley (SD) rats [2]; 72 h", "value": "326 ± 293"},
      {"measurement": "Full blood count RCC", "setting": "Sprague Dawley (SD) rats [2]; 72 h", "value": "6.8 ± 1"},
      {"measurement": "Full blood count WCC", "setting": "Sprague Dawley (SD) rats [2]; 72 h", "value": "4.7 ± 1"},
      {"measurement": "thrombocytopenia (low platelet count)", "setting": "Sprague Dawley (SD) rats [2]", "value": "thrombocytopenia"}
    ]},
    {"molecule": "paradisine A", "values": [
      {"measurement": "enzyme inhibitor potency relative to 6-7-dihydroxybergamottin (DHB)", "setting": "[4]", "value": "over 20 times"},
      {"measurement": "enzyme inhibitor potency relative to BGT (GF-I-2)", "setting": "[4]", "value": "over 100 times"}
    ]},
    {"molecule": "paradisine B", "values": [
      {"measurement": "enzyme inhibitor potency relative to 6-7-dihydroxybergamottin (DHB)", "setting": "[4]", "value": "over 20 times"},
      {"measurement": "enzyme inhibitor potency relative to BGT (GF-I-2)", "setting": "[4]", "value": "over 100 times"}
    ]}
  ]
}
